From a melting point compilation (Tetko et al.; mined from patent text by program, amines drawn as free bases though some values may be those of a salt)

Row | melting point [°C] | Compound
1 | 91 to 92 | COc1cnc(CO)c(C)c1OC
2 | 156 to 157 | CCNC(=O)/C=C/c1cnoc1-c1ccccc1
3 | 83 to 84 | COc1cc(SC(F)F)nc(N)n1
4 | 56 to 58 | CCCOC(C)c1ccc(C(=O)O)cc1 (single isomer, unassigned; (+))
5 | 167 to 169 | CN(C)c1cccc(-c2cccc(-c3ccnc4c(C(=O)c5cccs5)cnn34)c2)c1
6 | 60 to 61 | CCCc1nnc(Cc2ccc(N)cc2)o1
7 | 168 to 170 | COc1ccc(C(=O)N[C@H](C(=O)N2CCC[C@H]2C(=O)N[C@@H](C(C)C)[C@@H](O)C(F)(F)F)C(C)C)cc1
8 | 139 to 141 | O=[N+]([O-])c1c(Br)nn(Cc2ccc(Cl)cc2)c1NCc1ccccc1
9 | 186 | O=C(NCC1CCN(CC2(C(=O)O)CC2)CC1)N1C(=O)C2(CCCC2)c2ccccc21
10 | 216 to 220 | O=C(CC1CCNCC1)Nc1cccc(-c2ccnc3c(C(=O)c4cccs4)cnn23)c1
11 | 237 | N#CC1=C(c2ccco2)Nc2n[nH]cc2C1c1cccc2nonc12 (stereo unspecified)
12 | 100 to 101 | O=C(Cl)c1ccc(-c2nc(C(Cl)(Cl)Cl)nc(C(Cl)(Cl)Cl)n2)cc1
13 | 88 to 93 | CC(=O)c1ccc(-c2nccn2C)cc1
14 | 132 to 134 | CCN1C(=O)C(C)(C)C(=O)N(C)c2cc(CN(CCn3ccc4oc(C(F)(F)F)cc4c3=O)Cc3cccnc3C)ccc21
15 | 128 to 130 | COc1cc(C2CCC(c3cc(OC)c(OC)c(OC)c3)O2)cc(OC)c1OC (stereo unspecified)
16 | 215 to 217 | Cc1nc(N)c2nc(C)n(NCCCNS(C)(=O)=O)c2c1C
17 | 130 to 134 | CCOC(=O)c1c(N2CCN(CCO)CC2)c2cc(Cl)ccc2[nH]c1=O
18 | 171 to 172 | CCOC(=O)NC(=S)Nc1cc(NC(=O)OC)ccc1NC(=O)CN(C)C
19 | 129 | CNc1cc(Cl)cc(N)c1[N+](=O)[O-]
20 | 216 | Cc1cc2cc(CN3CCC(CC(=O)N4CCCCC4)CC3)cnc2cc1NC(=O)c1ccc(-c2ccc(F)cc2)cc1
21 | 114 to 116 | COc1ccc2c(c1)C(=O)C(Cc1cccc(NS(=O)(=O)C(F)(F)F)c1)CO2 (stereo unspecified)
22 | 81 to 85 | CN1CCN(c2cc(NC(=O)OC(C)(C)C)c(N)cc2C#Cc2ccccc2)CC1
23 | 173 | O=C(Nc1ccc(C[C@H](NS(=O)(=O)N2CCSCC2)C(=O)O)cc1)c1c(Cl)cncc1Cl

Row | melting point [°C] | Compound
24 | 112 to 115 | CCCc1cccc(N2CC(=O)N(C)C(=O)N2)c1
25 | 166 to 167 | O=C(CCN1CCN(c2cccc(C(F)(F)F)c2)CC1)c1ccc2oc3ccc(C(=O)CCN4CCN(c5cccc(C(F)(F)F)c5)CC4)cc3c(=O)c2c1
26 | 164 | Cc1c(-c2ncc([N+](=O)[O-])n2C)cnn1-c1ccc(Cl)cc1
27 | 131 to 134 | CC(C)(O)C(=O)c1ccc(OCC(=O)O)cc1
28 | 90.5 to 92.3 | CC(=O)NC[C@H]1CN(c2ccc(-n3nccc3-c3cccc(Br)n3)c(F)c2)C(=O)O1
29 | 109 to 110 | CCOC(=O)C(=O)c1cn(-c2ccccc2)c2ccccc12
30 | 149 to 150 | O=c1oc2ccc(Cc3ccccc3)cc2c(O)c1CCCOc1ccccc1
31 | 129 to 131 | Cn1nnc(Cc2ccc3c(c2)c(C2=CCN(CCN4CCNC4=O)CC2)cn3-c2ccc(F)cc2)n1
32 | 149 to 150 | CC(=O)c1ccccc1-c1ccc(C(=O)N2Cc3ccc(C(=O)NCc4cccnc4)n3Cc3ccccc32)cc1
33 | 45 to 47 | CC(O)CN1CCC(c2noc3cc(F)ccc23)CC1 (stereo unspecified)
34 | 62 to 65 | N#CCCOC(=O)C=Cc1ccccc1
35 | 244 | Cc1cc(-c2cc(C(F)(F)F)n3ncc(C(=O)Nc4cccc(S(=O)(=O)NC5CC5)c4)c3n2)ccc1Cl
36 | 220 to 222 | Cc1nc2c(O[C@@H]3c4ccccc4C[C@H]3O)cc(Cl)cn2c1C=O (relative stereo)
37 | > 250 | O=c1[nH]c2cccc(OCCN3CCc4ccccc4C3)c2[nH]c1=O
38 | 120 | CC(=O)Nc1ccc(-c2cc(C(=O)c3ccc(Cl)cc3)sc2N2CCOCC2)cc1
39 | 120 to 122 | CCOC(=O)c1ccc2c(c1)sc1cc(Cl)ccc12
40 | 251 to 252 | CC(C)n1nc(-c2sc(NC(=O)c3ccccc3F)nc2-c2ccccc2)ccc1=O
41 | 156 to 157 | CSc1c(O[C@@H]2CCC[C@H](N3C(=O)c4ccccc4C3=O)C2)ccc2[nH]ncc12 (relative stereo)
42 | 167 to 169 | Cc1[nH]c(C(=O)Nc2ccc3[nH]ccc3c2)c(C)c1-c1nc2ccc(C(=O)c3ccccc3)cc2[nH]1
43 | 163 | NC(=O)c1cnccc1C(F)(F)F
44 | 102 to 104 | CC(CNC(=O)c1ccc(Cl)nc1)Cn1ccnc1 (stereo unspecified)
45 | 181 | CC(C)(C)OC(=O)NCCCCC(=O)Nc1ccc(O)c(C(=O)O)c1
46 | 170 | COc1ccccc1-c1nc(N)ncc1-c1ccc(=O)n(C(C)C)n1

Row | melting point [°C] | Compound
47 | 110 to 111 | CC(C)(CO)C(=O)C(Oc1ccc(Cl)cc1)n1cncn1 (stereo unspecified)
48 | 185 to 187 | COc1ccc(Br)c(-n2c(=O)[nH]c(=O)n(C)c2=O)c1
49 | > 260 | CC(=O)N1c2ccccc2C[C@H]1C(N)=O
50 | 192 to 193 | CN1CC(=O)c2ccc3ccccc3c2S1(=O)=O
51 | 97 to 99 | COC(=O)CCCNC(=O)CCCN(C(=O)c1cc(OC)c(OC)c(OC)c1)c1c(C)cccc1C
52 | 212 | O=P(O)(O)OP(=O)(O)O
53 | 46 | CCN(CC)C(=O)c1c(C(=O)OC)ccc(F)c1[Si](C)(C)C
54 | 98 | O=C1Nc2ccc(F)cc2C(CCc2ccccc2)(C(F)(F)F)N1 (racemic)
55 | 210 | COc1ccc2cc(-c3ccc(Cl)c(-n4nc(C)nc4C)c3)c(=O)oc2c1
56 | 148 to 150 | CCCN1C(=O)c2cnc(-c3ccccc3)nc2N(C(=O)CN2CCN(C)CC2)c2ccccc21
57 | 96 to 100 | O=C(COCc1ccccc1)NC(C(=O)Nc1n[nH]c(=S)s1)c1ccccc1 (stereo unspecified)
58 | 194 to 200 | O=c1cc(-c2ccccc2)nc2ccn(-c3ccccc3)n12
59 | 109 to 111 | CCCCCCCCCCCCCC(=O)Nc1cc(NC(=O)CCCCCCCCCCCCC)cc(C(=O)N(CC(=O)O)CC(=O)O)c1
60 | 199 to 201 | COc1ccc(C2CCOCC2)c2sc(NC(=O)c3ccnc(CN4CCOCC4)c3)nc12
61 | 69 | COc1cc(C=O)c(Br)c(OC)c1OC
62 | 168 to 173 | COc1c(C)c2c(c(OS(=O)(=O)c3ccc(C)cc3)c1CC=C(C)C=O)C(=O)OC2
63 | 89 | CCOC(=O)C1=C(C)NN=C(CC)C1c1cccc(OC)c1 (stereo unspecified)
64 | 167 to 169 | O=c1c2c(oc3cc(OCCN4CCOCC4)ccc13)C(=Cc1ccccc1)CC2
65 | 174 to 175 | COC(=O)[C@@H](Cc1ccccc1)Oc1c(Br)cc(-c2c3ccccc3c(Br)c3sc(C)c(C)c23)cc1Br
66 | 176 to 178 | CCOC(=O)c1cn(C2CC2)c2nc(Cl)c(F)cc2c1=O
67 | 225 to 229 | O=C(CCn1cnc2c(=O)[nH]cnc21)NCCO
68 | 274 | COC(=O)CCCc1cc2nc(Cl)ccc2n1S(=O)(=O)c1ccc2nc(NC(C)=O)sc2c1
69 | 152 | CCOC(=O)C1CCN(Cc2nc(NCc3ccc(OC)c(Cl)c3)c3c4c(oc3n2)CCCC4)CC1

Row | melting point [°C] | Compound
70 | 206 to 208 | O=C1Cc2ccc3ccccc3c2OC1C(=O)c1cccc(Cl)c1 (stereo unspecified)
71 | 106 to 107 | C=C(C)C(=O)Oc1ccc(S(=O)(=O)NC)cc1
72 | 133 to 134 | Cc1cc2nc(Cl)c(Cl)nc2c([N+](=O)[O-])c1C
73 | 186 to 189 | CC(C(N)=O)C(O)(Cn1cncn1)c1ccc(Cl)cc1 (stereo unspecified)
74 | 231 to 233 | Nc1ncc(Cc2ccc3ccccc3c2)c(N)n1
75 | 129 to 131 | CC(=O)Oc1ccc(C(C)C)c(NC(=O)CN2CCN(CCSc3nc4ccccc4o3)CC2)c1C(C)C
76 | 312 to 314 | COc1ccc(-c2c(O)c3ccccc3[nH]c2=O)cc1OC
77 | 167 to 170 | CCCCNS(=O)(=O)CC(O)C(O)C(CC1CCCCC1)NC(=O)c1ccccn1 (stereo unspecified)
78 | 272 to 274 | Cc1cccc2c1NC(=O)C2(c1ccc(O)cc1)c1ccc(O)cc1
79 | 35 to 38 | CON1C(C)(C)CC(=O)CC1(C)C
80 | 99 | CC(Nc1nc(N)nc(C(F)(F)F)n1)c1ccc(Cl)cc1 (stereo unspecified)
81 | 98 to 100 | COc1cc(Nc2c(C#N)cnc3cc(-c4ccsc4CN4CCOCC4)ccc23)c(Cl)cc1Cl
82 | 228 to 230 | Cc1oc(-c2ccccc2)nc1CCC(=O)c1ccc(C=C2SC(=O)NC2=O)nc1
83 | 67 to 68 | COC(=O)CCC#Cc1cc(F)c(Cl)cc1N
84 | 230 to 232 | O=C(c1ccc(O)cc1)c1cc(C(=O)c2ccc(O)cc2)cc([N+](=O)[O-])c1
85 | 288 to 290 | O=C(N1CCOCC1)N1Cc2c(-c3nc4ccccc4o3)ncn2-c2ccccc21
86 | 207 to 210 | O=C(O)COc1cccc2c1Cc1sc(SCC(c3ccccc3)c3ccccc3)nc1-2
87 | 92 to 95 | COC(=O)Cc1ccc(C(C)(C)C)c([N+](=O)[O-])c1
88 | 195 to 196 | CC(C(=O)O)c1ccc2c(c1)C(=O)Cc1cc(Cl)ccc1S2 (stereo unspecified)
89 | 220 | O=C(O)c1cnc2ccc(-c3ccc(C(F)(F)F)cc3)cn12
90 | 92 to 96 | CSc1nnc(CNc2c(C)csc2C)n1C
91 | 114 to 116 | CC(C)c1ccc(N)c(C(=O)NCC2CCN(C(c3ccccc3)c3ccccc3)CC2)c1
92 | 146 to 148 | O=C(Nc1ccc(Nc2ccccc2)cc1)OCCc1ccc([N+](=O)[O-])cc1

Row | Compound | melting point [°C]
93 | Cc1[nH]c2ccccc2c1CSCCN1CC=C(c2ccccc2)CC1 | 182
94 | COc1cccc(OC(=O)c2ncn3c2[C@@H]2CCCN2C(=O)c2c(Cl)cccc2-3)c1 | 184 to 185
95 | COc1ccc(CCc2cc3c(s2)-n2c(C)nnc2CN=C3c2ccccc2Cl)cc1 | 100 to 105
96 | CN1Cc2c(C#CC(O)(C3CC3)C3CC3)ncn2-c2cccc(Cl)c2C1=O | 179 to 181
